Results on 13 compounds are retold here after ChEMBL document CHEMBL5260814, “Design strategies in the prodrugs of HIV-1 protease inhibitors to improve the pharmaceutical properties” (Eur J Med Chem, 2017).

Data set [1] can be described thus: Metabolic stability in rat liver microsome assessed as compound remaining measured after 2 hrs. The format is ADME. The conditions noted are these: microsomes.
Data set [2] is described as follows: Metabolic stability in rat liver microsome assessed as compound remaining measured after 4 hrs. The conditions noted are these: microsomes. The format is ADME. (Microsomes from liver hold many membrane-bound enzymes, among them those of drug oxidation.)
Data set [3] in a line: Chemical stability of compound in PBS buffer at pH 4 assessed as half life measured for 24 hrs. The format is physicochemical.
A short description of data set [4]: Chemical stability of compound in PBS buffer at pH 7.4 assessed as half life measured for 24 hrs. The format is physicochemical.
A short description of data set [5]: Aqueous solubility of compound. The format is physicochemical. Conditions: buffer.
Data set [6] in a line: Solubility of compound at pH at 7. The conditions noted are these: pH 7. The format is physicochemical.
Data set [7] in a line: Solubility of compound at pH at 3 to 4. The format is physicochemical.
The nature of data set [8]: Solubility of compound at pH at 3. The format is physicochemical. The conditions noted are these: pH 3.
Data set [9] is described as follows: Equilibrium solubility of compound. The data set is classed as physicochemical.
Data set [10] can be described thus: Efflux ratio of apparent permeability across basal to apical membrane over apical to basal membrane in human Caco-2 cells. The format is ADME, cell-based.
The nature of data set [11]: Prodrug conversion in human serum at 50 uM using glycylprolyl-para-nitroanilide as substrate measured for 1 hr relative to control. The data set is classed as ADME, cell-free.
A short description of data set [12]: Prodrug conversion in human serum at 50 uM using glycylprolyl-para-nitroanilide as substrate measured for 4 hrs relative to control. The data set is classed as ADME, cell-free.
Data set [13] can be described thus: Half life in calf. The format is ADME, Bos taurus. The conditions noted are these: cattle.
The nature of data set [14]: AUC in rat at 5 mg/kg, po. The data set is classed as ADME, organism-based. More on the design: dose 5 mg/kg, route po. The conditions noted are these: in vivo.
Data set [15] is described as follows: Drug uptake in dog MDCK-MDR1 cells. The format is ADME, cell-based, Canis lupus familiaris.
The nature of data set [16]: Stability of compound assessed as half life at pH 2. The conditions noted are these: buffer. The data set is classed as physicochemical.
In data set [17] the test system is P-glycoprotein. In words: Efflux ratio of apparent permeability across basal to apical membrane over apical to basal membrane in human Caco-2 cells in absence of P-glycoprotein. The format is ADME, cell-based.
A short description of data set [18]: Metabolic stability in rat liver microsome assessed as half life […]. Conditions: liver microsomes. The format is ADME.
Data set [19] is described as follows: Metabolic stability in rat plasma assessed as half life at 0.2 mg/kg, po. The format is ADME.
The nature of data set [20]: Efflux ratio of apparent permeability across apical to basolateral to basolateral to apical side in MDCK1 cells. The data set is classed as ADME, cell-based.

SMILES strings stand for the structures. Values after ≈ are worked out from the molar mass of the structure shown.

Turning to `Cc1cccc(C)c1OCC(=O)N[C@@H](Cc1ccccc1)[C@H](C[C@H](Cc1ccccc1)NC(=O)[C@H](C(C)C)N1CCCNC1=O)OC(=O)[C@@H](NC(=O)CN)C(C)C`, the Stability in data set [1] was 26%; in data set [2], 46%.

With `Cc1cccc(C)c1OCC(=O)N[C@@H](Cc1ccccc1)[C@@H](O)C[C@H](Cc1ccccc1)NC(=O)[C@H](C(C)C)N1CCCNC1=O` [LOPINAVIR], in data set [1], the Stability is on record as 5%. For the same compound, the half-life (as a rule, the time needed for the level to fall by half in the phase considered) is 101 h in [3] and 5.4 h in data set [4]. Besides, in data set [5], the concentration in solution (solubility) came to 7 µg/mL (≈ 11.1 µM).

As to `CC(C)CN(C[C@@H](OP(=O)([O-])[O-])[C@H](Cc1ccccc1)NC(=O)O[C@H]1CCOC1)S(=O)(=O)c1ccc(N)cc1.[Ca+2]` [FOSAMPRENAVIR CALCIUM], the values for the solubility in [6], in data set [7] and in data set [8] were 300 µg/mL, 54000 µg/mL and 54000 µg/mL, respectively. The solubility (thermodynamic) (in general, solubility found after equilibrating the solid with the medium) in data set [9] was found to be 400 µM.

With `COC(=O)N[C@H](C(=O)N[C@@H](Cc1ccccc1)[C@@H](O)CN(Cc1ccc(-c2ccccn2)cc1)NC(=O)[C@@H](NC(=O)OC)C(C)(C)C)C(C)(C)C` [ATAZANAVIR], the efflux ratio – broadly, the permeability from basolateral to apical divided by that in the opposite direction, in the common usage – in [10] turned out to be 12.

With `CC(C)CN(C[C@@H](O)[C@H](Cc1ccccc1)NC(=O)O[C@H]1CO[C@H]2OCC[C@H]21)S(=O)(=O)c1ccc(CNC(=O)[C@@H]2CCCN2C(=O)[C@@H](N)C(C)C)cc1`, the Drug metabolism in [11] and in data set [12] was 2% in each case.

As to `CC(C)c1nc(CN(C)C(=O)N[C@H](C(=O)N[C@@H](Cc2ccccc2)C[C@H](OCOP(=O)([O-])[O-])[C@H](Cc2ccccc2)NC(=O)OCc2cncs2)C(C)C)cs1.[Na+].[Na+]`, in data set [5], the solubility (commonly the concentration that dissolves in the medium under given conditions) is > 5000 µg/mL. In data set [13], this compound had a half-life of 0.117 h. In addition, the AUC (commonly concentration integrated over time) in data set [14] stood at 460 ng·h/mL.

For `CC(C)(C)NC(=O)[C@@H]1C[C@@H]2CCCC[C@@H]2CN1C[C@@H](OC(=O)CCCC[C@@H]1SC[C@@H]2NC(=O)N[C@@H]21)[C@H](Cc1ccccc1)NC(=O)[C@H](CC(N)=O)NC(=O)c1ccc2ccccc2n1`, in [15], the Drug uptake came to 72%.

For `CC(C)c1nc(CN(C)C(=O)N[C@H](C(=O)N[C@@H](Cc2ccccc2)C[C@H](OC(OP(=O)([O-])[O-])C(C)C)[C@H](Cc2ccccc2)NC(=O)OCc2cncs2)C(C)C)cs1.[Na+].[Na+]` (stereo partly specified), the half-life in data set [13] is > 0.5 h.

On to `CC(O[C@@H](C[C@H](Cc1ccccc1)NC(=O)[C@@H](NC(=O)N(C)Cc1csc(C(C)C)n1)C(C)C)[C@H](Cc1ccccc1)NC(=O)OCc1cncs1)OP(=O)([O-])[O-].[Na+].[Na+]` (stereo partly specified), for which the solubility in data set [5] is > 5000 µg/mL. Further, the half-life in data set [16] is < 0.25 h. In addition, the AUC in data set [14] was determined as 630 ng·h/mL.

Take `Cc1cccc(C)c1OCC(=O)N[C@@H](Cc1ccccc1)[C@H](C[C@H](Cc1ccccc1)NC(=O)[C@H](C(C)C)N1CCCNC1=O)OC(C)OP(=O)([O-])[O-].[Na+].[Na+]` (stereo partly specified): the solubility in [5] was > 5000 µg/mL. Also, the half-life in data set [16] is < 0.25 h. In data set [14], this compound gave an AUC of 9530 ng·h/mL.

Consider `Cc1cccc(C)c1OCC(=O)N[C@@H](Cc1ccccc1)[C@H](C[C@H](Cc1ccccc1)NC(=O)[C@H](C(C)C)N1CCCNC1=O)OC(=O)[C@@H](NC(=O)[C@@H](N)C(C)C)C(C)C`, for which the Stability came to 10% in [1] and 46% in data set [2].

With `CC(C)[C@H](N)C(=O)N[C@H](C(=O)O[C@H](CN1C[C@H]2CCCC[C@H]2C[C@H]1C(=O)NC(C)(C)C)[C@H](Cc1ccccc1)NC(=O)[C@H](CC(N)=O)NC(=O)c1ccc2ccccc2n1)C(C)C`, the efflux ratio in data set [17] worked out at 1.2. The half-life is 1.48 h in data set [18] and 7.8 h in data set [19]. Besides, the Ratio in [20] is given as 2.1.

As for `CC(C)[C@H](NC(=O)CN)C(=O)O[C@H](CN1C[C@H]2CCCC[C@H]2C[C@H]1C(=O)NC(C)(C)C)[C@H](Cc1ccccc1)NC(=O)[C@H](CC(N)=O)NC(=O)c1ccc2ccccc2n1`, the Ratio in [20] was found to be 2.1.
